The values that follow come from patent US20260226527A1, “METHODS FOR IDENTIFYING HERBICIDAL COMPOUNDS” (SYNGENTA CROP PROTECTION AG, priority 2023, published 2026).

The assay has as its target T1, mature Arabidopsis BIO3-BIO1 (SEQ ID NO: 21) (Arabidopsis thaliana, UniProt B0F481).
T1 construct: 6xHis (N); thrombin cleavage site (N); made in house; host or cells: E. coli BL21 (DE3) bioA
T1 sequence (B0F481 with tags, fused parts or gaps): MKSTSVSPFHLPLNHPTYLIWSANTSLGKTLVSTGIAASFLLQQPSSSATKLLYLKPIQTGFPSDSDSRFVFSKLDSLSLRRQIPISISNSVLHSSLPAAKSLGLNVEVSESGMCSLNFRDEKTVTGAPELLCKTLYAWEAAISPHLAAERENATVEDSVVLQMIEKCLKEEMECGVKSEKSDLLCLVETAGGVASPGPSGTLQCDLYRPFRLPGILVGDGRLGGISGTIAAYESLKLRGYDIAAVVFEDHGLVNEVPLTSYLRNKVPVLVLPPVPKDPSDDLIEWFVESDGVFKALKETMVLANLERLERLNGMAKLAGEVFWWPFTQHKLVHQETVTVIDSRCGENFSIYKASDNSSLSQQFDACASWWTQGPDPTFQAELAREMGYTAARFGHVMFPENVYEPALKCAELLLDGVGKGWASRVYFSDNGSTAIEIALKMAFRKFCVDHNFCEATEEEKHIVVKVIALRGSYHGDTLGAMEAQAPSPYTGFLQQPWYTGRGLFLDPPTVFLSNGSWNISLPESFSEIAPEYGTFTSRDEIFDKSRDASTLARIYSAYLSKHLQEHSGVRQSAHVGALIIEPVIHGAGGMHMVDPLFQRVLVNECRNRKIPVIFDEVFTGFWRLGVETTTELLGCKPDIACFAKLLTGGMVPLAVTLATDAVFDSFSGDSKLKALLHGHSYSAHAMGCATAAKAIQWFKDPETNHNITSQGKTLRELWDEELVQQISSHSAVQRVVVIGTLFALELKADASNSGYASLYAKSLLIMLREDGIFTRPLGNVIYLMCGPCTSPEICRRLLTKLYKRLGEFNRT
Nature of the assay: DAPA-AT assay with spermidine as amine donor, fluorescent detection of DAPA:o-phthalaldehyde. Type of assay: biochemical. The settings on record: 10 μM spermidine, 1 μM KAPA, 60 minutes at 20° C.; for inhibition at 1 µM: inhibitor concentration 1 μM; for inhibition at 5 µM: inhibitor concentration 5 μM; for inhibition at 20 µM: inhibitor concentration 20 μM; for inhibition at 100 µM: inhibitor concentration 100 μM; for inhibition at 0.2 µM: inhibitor concentration 0.2 μM. Here is the method: A pET-24 plasmid containing a DNA sequence encoding BIO3-BIO1 derived from Arabidopsis thaliana, codon-optimised for expression in E. coli, with the predicted N-terminal mitochondrial transit peptide removed and with an N-terminal 6×His-tag and thrombin cleavage site and under control of a T7 promoter (SEQ ID NO:38), was synthesised by Twist Bioscience. The plasmid was expressed in E. coli BL21 (DE3) bioA with 50 μg/mL kanamycin and 25 μg/mL chloramphenicol selection. Overnight cultures grown at 37° C. were used to inoculate 8×500 mL AIM in shake flasks at a ratio of 1:100. Cultures were grown at 37° C., 200 rpm for 3.5 hours and then overnight at 20° C. Cells were harvested by centrifugation for 30 minutes at 10 000 g. Cells were stored at −80° C. until extraction. 30 g of cell pellet from was thawed in 120 mL of IMAC buffer A (20 mM HEPES pH7.5, 25 mM imidazole, 500 mM sodium chloride, 0.15 mM pyridoxal phosphate, 0.5 mM TCEP, 1×complete Protease Inhibitor Tablet (Roche)). The resuspension was passed through a cell disrupter at 18 000 PSI and centrifuged at 50 000 g for 25 minutes at 4° C. The His-tagged BIO3-BIO1 protein was purified from the extract supernatant on an ÄKTA avant chromatography system (Cytiva) using a HisTrap FF column and eluted in IMAC buffer B ((20 mM HEPES pH7.5, 500 mM imidazole, 500 mM sodium chloride, 0.15 mM pyridoxal phosphate, 0.5 mM TCEP) followed by SEC using a HiLoad 26/60 Superdex200 column in SEC buffer (25 mM HEPES pH7.5, 150 mM sodium chloride, 0.15 mM pyridoxal phosphate, 0.5 mM TCEP). Protein concentration was measured and calculated using the absorbance at 280 nm. Extracts were diluted 1 in 4 and 10 uL was analysed by SDS PAGE.
To measure DAPA-AT enzyme activity in the presence of herbicide (candidate compound), 0.5 μL of the herbicide was incubated with 20 μL of enzyme mix (100 mM EPPS pH 8.6, 0.1 mM pyridoxal phosphate, 0.1 mg/mL BSA, 25 nM BIO3-BIO1 enzyme) for 10 minutes at 20° C. in a well of a 384-well black plate, followed by the addition of 20 μL of substrate mix (final concentration of 100 mM EPPS pH 8.6, 0.1 mM pyridoxal phosphate, 0.1 mg/mL BSA, 10 μM spermidine, 1 μM KAPA, 100 mM NaHCO3) and further incubation for 60 minutes at 20° C. The reaction was terminated by the addition of 50 μL of derivatisation mix consisting of 185 mM borate NaOH pH 9.4, 3 mM o-phthalaldehyde, 6 mM β-mercaptoethanol, 22.5% (v/v) ethanol, 3% (v/v) methanol. The fluorescent product produced by the reaction of DAPA with o-phthalaldehyde and β-mercaptoethanol was measured at 470 nm after excitation at 410 nm. The percentage inhibition was calculated using the equation, % inhibition=100×((((MAX−MIN)−(X−MIN))/(MAX−MIN))), where MIN and MAX are the average of the minimum reaction and maximum reaction controls and X is the test sample. Compounds are typically added directly to the assay plate in a serial 3× dilution from a top final concentration of 100 μM over 10 different concentrations. The percent inhibition values are fitted to a dose-response using the equation Y=Bottom+(Top−Bottom)/(1+((X^Hill Slope)/(IC50^Hill Slope))) to calculate the compound concentration that gives 50% inhibition (IC50).

The term inhibition denotes how much of the control response was suppressed. Read a high inhibition as strong suppression.

Each structure is given as a SMILES string.

`CCOC(=O)c1nn(-c2ccc3c(c2)OC(F)(F)C(F)(F)O3)c2cccc(C(C)=O)c2c1=O` [Compound A, ethyl 5-acetyl-4-oxo-1-(2,2,3,3-tetrafluoro-1,4-benzodioxin-6-yl)cinnoline-3-carboxylate] returned an inhibition at 1 µM of 59% and an inhibition at 5 µM of 84%.
`CC(O)C(N)CCCCC(=O)O` (centres unmarked) [Compound B, [5-carboxy-1-(1-hydroxyethyl)pentyl]ammonium; chloride] returned an inhibition at 20 µM of 84% and an inhibition at 100 µM of 95%.
In the case of `CCn1c(C)c(-c2ccc(F)cc2F)c(=O)c(C(=O)O)c1-c1ccc(Cl)c(Cl)c1` [Compound C, 2-(3,4-dichlorophenyl)-5-(2,4-difluorophenyl)-1-ethyl-6-methyl-4-oxo-pyridine-3-carboxylic acid], testing at 0.2 µM gave an inhibition of 29%, at 1 µM the inhibition was 64% and the inhibition at 5 µM was found to be 85%.
The compound `CCn1c(C)c(-c2cc(OC(F)(F)F)ccc2Cl)c(=O)c(C(=O)O)c1-c1ccc(Cl)c(Cl)c1` [Compound D, 5-[2-chloro-5-(trifluoromethoxy)phenyl]-2-(3,4-dichlorophenyl)-1-ethyl-6-methyl-4-oxo-pyridine-3-carboxylic acid] had an inhibition at 0.2 µM of 51%, an inhibition at 1 µM of 84% and an inhibition at 5 µM of 95%.
`C[C@@H](N)COc1cccc(C(=O)O)n1` [Compound E, [(1R)-2-(6-carboxypyridin-1-ium-2-yl)oxy-1-methyl-ethyl]ammonium; dichloride] came in with an inhibition at 20 µM of 80% and an inhibition at 100 µM of 94%.
Consider `CCn1c(Cn2ccc(C(F)(F)F)n2)cc(=O)c(C(=O)O)c1-c1ccc(Cl)c(Cl)c1` [Compound L, 2-(3,4-dichlorophenyl)-1-ethyl-4-oxo-6-[[3-(trifluoromethyl)pyrazol-1-yl]methyl]pyridine-3-carboxylic acid], for which the inhibition at 0.2 µM was determined as 6%, 1 µM produced 44% inhibition and 5 µM produced 83% inhibition.
Regarding `CCn1c(-c2ccc(Cl)c(Cl)c2)c(C(=O)O)c(=O)c2cc(F)ccc21` [Compound M, 2-(3,4-dichlorophenyl)-1-ethyl-6-fluoro-4-oxo-quinoline-3-carboxylic acid], the inhibition at 1 µM turned out to be 58% and the inhibition at 5 µM stood at 82%.
